Structures are written as SMILES.

In one data set the test system is Hepatitis C virus. The data set is described as follows: Antiviral activity against HCV by replicon assay. The data set is classed as functional, organism-based, Hepacivirus hominis.
Another data set relates to Plasma. The data set is described as follows: Stability in human plasma. The data set is classed as ADME, cell-free.
The nature of data set [1]: Stability in human simulated gastric fluid. As to conditions: simulated gi fluid. The data set is classed as ADME, Stomach.
Data set [2] is described as follows: Stability in human simulated intestinal fluid at 1 mg/mL after 30 mins. The data set is classed as ADME. As to conditions: read-out: Stability.
Data set [3] can be described thus: Stability in human simulated intestinal fluid at 1 mg/mL after 60 mins. The data set is classed as ADME. As to conditions: read-out: Stability.
Data set [4] can be described thus: Stability in human simulated intestinal fluid at 1 mg/mL after 2 hrs. The data set is classed as ADME. As to conditions: simulated gi fluid.

One may read the EC50 as the concentration that produces a half-maximal response. Higher therefore signals weaker potency. Take `COC(=O)C(C)NP(=O)(OC[C@H]1O[C@@H](n2cnc3c(N(C)NS(C)(=O)=O)nc(N)nc32)[C@](C)(O)[C@@H]1O)Oc1ccccc1` (stereo not given in full): the midpoint of the response with Hepatitis C virus, the EC50, lay at 1200 nM.

For the compound `COC(=O)C(C)NP(=O)(OC[C@H]1O[C@@H](n2cnc3c(N(C)NS(C)(=O)=O)nc(N)nc32)[C@](C)(O)[C@@H]1O)Oc1ccc(Cl)cc1` (stereo not given in full), the midpoint of the response in the data set with Hepatitis C virus, the EC50, lay at 800 nM. This EC50 lies about 1.5-fold lower than the previous one.

Compound `CC(NP(=O)(OC[C@H]1O[C@@H](n2cnc3c(N(C)NS(C)(=O)=O)nc(N)nc32)[C@](C)(O)[C@@H]1O)Oc1ccccc1)C(=O)OCc1ccccc1` (stereo not given in full) yielded an EC50 in the data set on Hepatitis C virus of 2200 nM. Besides, the Stability result (with Plasma; in data set [1]) was “Stable” each time. The remaining at 0.5 h, 1 mg/mL in data set [2] is 0%. Also, the remaining at 1 h, 1 mg/mL in data set [3] was 0%.

`CN(NS(C)(=O)=O)c1ncnc2c1ncn2[C@@H]1O[C@H](COP(=O)(OCCSC(=O)C(C)(C)C)OCCSC(=O)C(C)(C)C)[C@@H](O)[C@@]1(C)O` came in with an EC50 with Hepatitis C virus of 60 nM. In other words, the double-digit nanomolar range.

Consider `CN(NS(C)(=O)=O)c1nc(N)nc2c1ncn2[C@@H]1O[C@H](CO)[C@@H](O)[C@@]1(C)O`, for which, in the data set with Hepatitis C virus, the EC50 amounted to 92000 nM.

For the compound `CN(NS(C)(=O)=O)c1ncnc2c1ncn2[C@@H]1O[C@H](CO)[C@@H](O)[C@@]1(C)O`, the EC50 in the data set on Hepatitis C virus amounted to 300000 nM.

Compound `COC(=O)C(C)NP(=O)(OC[C@H]1O[C@@H](n2cnc3c(N(C)NS(C)(=O)=O)ncnc32)[C@](C)(O)[C@@H]1O)Oc1ccc(Cl)cc1` (stereo not given in full) displayed an EC50 with Hepatitis C virus of 2600 nM.

Consider `COC(=O)CNP(=O)(OC[C@H]1O[C@@H](n2cnc3c(N(C)NS(C)(=O)=O)nc(N)nc32)[C@](C)(O)[C@@H]1O)Oc1ccccc1` (stereo not given in full), for which the EC50 with Hepatitis C virus came to 22000 nM. The Stability entry (in the data set on Plasma; in data set [1]) was “Stable” in each case. For the same compound, the remaining at 0.5 h, 1 mg/mL in data set [2] was 0%. For the same compound, the remaining at 1 h, 1 mg/mL in data set [3] was 0%.

In the data set with Hepatitis C virus, `COC(=O)CNP(=O)(OC[C@H]1O[C@@H](n2cnc3c(N(C)NS(C)(=O)=O)nc(N)nc32)[C@](C)(O)[C@@H]1O)Oc1ccc(Cl)cc1` (stereo not given in full) yielded a concentration for a half-maximal effect (EC50) of 8900 nM. Besides, the Stability result (with Plasma; in data set [1]) was “Stable” throughout. For the same compound, the remaining at 0.5 h, 1 mg/mL in data set [2] was 0%. The remaining at 1 h, 1 mg/mL in data set [3] is 0%.

As to `CC(NP(=O)(OC[C@H]1O[C@@H](n2cnc3c(N(C)NS(C)(=O)=O)ncnc32)[C@](C)(O)[C@@H]1O)Oc1ccccc1)C(=O)OCc1ccccc1` (stereo not given in full), the EC50 in the data set with Hepatitis C virus turned out to be 2900 nM. For the same compound, the Stability entry (in the data set with Plasma; in data set [1]) was “Stable” in each case. In data set [2], the remaining at 0.5 h, 1 mg/mL was 0%. Further, the remaining at 1 h, 1 mg/mL in data set [3] is 0%.

Take `CC(NP(=O)(OC[C@H]1O[C@@H](n2cnc3c(N(C)NS(C)(=O)=O)nc(N)nc32)[C@](C)(O)[C@@H]1O)Oc1ccc(Cl)cc1)C(=O)OCc1ccccc1` (stereo not given in full): the EC50 in the data set on Hepatitis C virus came to 110 nM. For the same compound, the Stability result (in the data set on Plasma; in data set [1]) was “Stable” in each case. In addition, the remaining at 0.5 h, 1 mg/mL in data set [2] was 0%. In addition, in data set [3], the remaining at 1 h, 1 mg/mL was 0%.

Regarding `CC(C)OC(=O)C(C)NP(=O)(OC[C@H]1O[C@@H](n2cnc3c(N(C)NS(C)(=O)=O)ncnc32)[C@](C)(O)[C@@H]1O)Oc1ccc(Cl)cc1` (stereo not given in full), the EC50 with Hepatitis C virus was 2500 nM. The Stability result (in the data set with Plasma; in data set [1]) was “Stable” in each case. The remaining at 0.5 h, 1 mg/mL in data set [2] is 67%. In addition, in data set [3], the remaining at 1 h, 1 mg/mL is 48%.

As for `COC(=O)CNP(=O)(OC[C@H]1O[C@@H](n2cnc3c(N(C)NS(C)(=O)=O)ncnc32)[C@](C)(O)[C@@H]1O)Oc1ccccc1` (stereo not given in full), the EC50 in the data set with Hepatitis C virus was 220000 nM. Further, the Stability entry (in the data set with Plasma; in data set [1]) was “Stable” throughout. For the same compound, the remaining at 0.5 h, 1 mg/mL in data set [2] is 0%. In data set [3], the remaining at 1 h, 1 mg/mL is 0%.

On to `CC(NP(=O)(OC[C@H]1O[C@@H](n2cnc3c(N(C)NS(C)(=O)=O)ncnc32)[C@](C)(O)[C@@H]1O)Oc1ccc(Cl)cc1)C(=O)OCc1ccccc1` (stereo not given in full), for which it took 680 nM to reach a half-maximal effect in the data set with Hepatitis C virus (EC50). The Stability entry (in the data set on Plasma; in data set [1]) was “Stable” throughout. Besides, the remaining at 0.5 h, 1 mg/mL in data set [2] was 0%. For the same compound, in data set [3], the remaining at 1 h, 1 mg/mL is 0%.

The compound `CC(C)OC(=O)C(C)NP(=O)(OC[C@H]1O[C@@H](n2cnc3c(N(C)NS(C)(=O)=O)nc(N)nc32)[C@](C)(O)[C@@H]1O)Oc1ccc(Cl)cc1` (stereo not given in full) returned an EC50 with Hepatitis C virus of 270 nM. Besides, the Stability entry (in the data set on Plasma; in data set [1]) was “Stable” each time. Also, in data set [2], the remaining at 0.5 h, 1 mg/mL was 61%. In data set [3], the remaining at 1 h, 1 mg/mL is 37%.

As for `COC(=O)C(C)(C)NP(=O)(OC[C@H]1O[C@@H](n2cnc3c(N(C)NS(C)(=O)=O)ncnc32)[C@](C)(O)[C@@H]1O)Oc1ccc(Cl)cc1` (stereo not given in full), a half-maximal effect in the data set with Hepatitis C virus (EC50) was put at 1400 nM. For the same compound, the Stability result (with Plasma; in data set [1]; in data set [4]) was “Stable” each time. The remaining at 0.5 h, 1 mg/mL in data set [2] is 100%. Further, the remaining at 1 h, 1 mg/mL in data set [3] is 100%.

Take `COC(=O)C(C)(C)NP(=O)(OC[C@H]1O[C@@H](n2cnc3c(N(C)NS(C)(=O)=O)nc(N)nc32)[C@](C)(O)[C@@H]1O)Oc1ccc(Cl)cc1` (stereo not given in full): the response with Hepatitis C virus was half-maximal at 260 nM (EC50). For the same compound, the Stability result (with Plasma; in data set [1]; in data set [4]) was “Stable” in each case. Besides, the remaining at 0.5 h, 1 mg/mL in data set [2] was 100%. The remaining at 1 h, 1 mg/mL in data set [3] is 100%.

In the data set with Hepatitis C virus, `COC(=O)C(C)NP(=O)(OC[C@H]1O[C@@H](n2cnc3c(N(C)NS(C)(=O)=O)ncnc32)[C@](C)(O)[C@@H]1O)Oc1ccccc1` (stereo not given in full) registered an EC50 of 26000 nM.

For the compound `CN(NS(C)(=O)=O)c1nc(N)nc2c1ncn2[C@@H]1O[C@H](COP(=O)(OCCSC(=O)C(C)(C)C)OCCSC(=O)C(C)(C)C)[C@@H](O)[C@@]1(C)O`, in the data set on Hepatitis C virus, the EC50 was 24 nM.

Turning to `COC(=O)CNP(=O)(OC[C@H]1O[C@@H](n2cnc3c(N(C)NS(C)(=O)=O)ncnc32)[C@](C)(O)[C@@H]1O)Oc1ccc(Cl)cc1` (stereo not given in full), in the data set with Hepatitis C virus, the EC50 was 39000 nM. Further, the Stability entry (with Plasma; in data set [1]) was “Stable” throughout. Besides, the remaining at 0.5 h, 1 mg/mL in data set [2] was 0%. The remaining at 1 h, 1 mg/mL in data set [3] was 0%.

Source of the values: ChEMBL document CHEMBL1144628, “6-Hydrazinopurine 2'-methyl ribonucleosides and their 5'-monophosphate prodrugs as potent hepatitis C virus inhibitors” (Bioorg Med Chem Lett, 2007).
